Measurements published in US20230303497A1, “BENZYLAMINE OR BENZYL ALCOHOL DERIVATIVE AND USES THEREOF” (CHENGDU HYPERWAY PHARMACEUTICALS CO., LTD, priority 2020, published 2023).

Columns and labels:
NaV1.7 = NaV1.7 (Homo sapiens (Human), UniProt Q15858); assay: Selectivity test for Nav ion channel subtypes: NaV1.7 (CHO cells, patch clamp); type: cell-based; conditions: 1 uM
Protocol: (§1) Test Case 3: Compound Selectivity Test for Nav Ion Channel Subtypes
(§2) The aim of this test is to investigate effect of compounds on human Na ion channel cells expressed in steady-state (NaV1.1, NaV1.3, NaV1.4, NaV1.5, NaV1.6, NaV1.7). After Na ion currents is stabilized, the effect can be obtained by comparing the magnitude of Na channel currents before and after the application of the compounds.
(§3) The test compound is stored at a concentration of 9 mM in dimethyl sulfoxide (DMSO), and on the day of testing, dissolve in extracellular solution, then prepare to a screening concentration of 1 uM.
(§4) All experiments are performed at room temperature. Each cell itself is taken as the corresponding control.
(§5) At least one cell is tested per concentration.
(§6) HEK293 cells steadily expressing NaV1.1-, NaV1.3-, NaV1.4-, NaV1.5-, NaV1.6-ion channels; CHO cells expressing steadily NaV1.7 ion channel.
(§7) The intracellular fluid (mM) is: Aspartic acid, 140; MgCl2, 2; EGTA 11; HEPES, 10; pH 7.2 (CsOH titration). […] Electrodes are drawn with PC-10 (Narishige, Japan). Recording is performed with whole-cell diaphragm clamp.
(§8) Cells are clamped at −80 mV and then depolarized to −10 mV with a sustained 10 ms square wave to obtain Na ion channel currents (see the FIGURE). This process is repeated every 5 seconds. […] The strength of the block is calculated after the response is stabilized.

NaV1.3 = NaV1.3 (Homo sapiens (Human), UniProt Q9NY46); assay: Selectivity test for Nav ion channel subtypes: NaV1.3 (HEK293, patch clamp); type: cell-based; conditions: 1 uM; HEK293 cells
Protocol: as §1, §2, §3, §4, §5, §6, §7, §8

NaV1.4 = NaV1.4 (Homo sapiens (Human), UniProt P35499); assay: Selectivity test for Nav ion channel subtypes: NaV1.4 (HEK293, patch clamp); type: cell-based; conditions: 1 uM; HEK293 cells
Protocol: as §1, §2, §3, §4, §5, §6, §7, §8

NaV1.5 = NaV1.5 (Homo sapiens (Human), UniProt Q14524); assay: Selectivity test for Nav ion channel subtypes: NaV1.5 (HEK293, patch clamp); type: cell-based; conditions: 1 uM; HEK293 cells
Protocol: as §1, §2, §3, §4, §5, §6, §7, §8

hERG ion channels = hERG ion channels (Homo sapiens (Human), UniProt Q12809); assay: Inhibition activity test on hERG ion channels in HEK293 cells (cardiac safety, patch clamp)
Protocol: This experiment is used as a cardiac safety test of compound.
The reagents are purchased from Sigma (St. Louis, MO) except NaOH and KOH for acid-base titration. Final concentrations of tested solutions are prepared on the testing day and dissolved in extracellular fluid. […] All the test solutions and the control solutions contain 0.3% DMSO. Intracellular fluid (mM) contains: K Aspartate, 130; MgCl2, 5; EGTA 5; HEPES, 10; Tris-ATP 4; pH 7.2 (KOH titration).
Cells: all experiments is performed at room temperature. Each cell itself is taken as the corresponding control.
Compounds are all perfused using a perfusion system that utilizes the gravity. At least two cells are tested per concentration. After current stabilization (or 5 minutes), the change in current magnitude before and after the use of the compound is compared to calculate the blocking effect of the compound.
The method of operation is the same as that of the test compound.
Electrophysiology: Transfer the Cells to the perfusion tank and perfuse with extracellular fluid. The intracellular fluid (mM) contains: K Aspartate, 130; MgCl2, 5; EGTA 5; HEPES, 10; Tris-ATP 4; pH 7.2 (KOH titration). The intracellular fluid is stored in small quantities in portions in a −80° C. refrigerator, and melt on the day of the experiment. Electrodes are drawn with PC-10 (Narishige, Japan). Recording is performed with whole-cell diaphragm clamp. Noise is filtered with one-fifth of the sampling frequency.
This process is repeated every 20 seconds. The hERG tail current is the pure hERG current. The maximum tail current triggered by the second square wave is detected, and when the current is stabilized, the test compound is perfused. The strength of the block is calculated when the response is stabilized.

NaV1.1 = NaV1.1 (Homo sapiens (Human), UniProt P35498); assay: Selectivity test for Nav ion channel subtypes: NaV1.1 (HEK293, patch clamp); type: cell-based; conditions: 1 uM; HEK293 cells
Protocol: as §1, §2, §3, §4, §5, §6, §7, §8

human NaV1.8 ion channel = human NaV1.8 ion channel (Homo sapiens (Human), UniProt Q9Y5Y9); assay: Compound inhibition activity on human NaV1.8 ion channel in HEK293 cells (whole-cell patch clamp); type: cell-based; conditions: 100 nm concentration; HEK293 cells, resting protocol
NaV1.6 = NaV1.6 (Homo sapiens (Human), UniProt Q9UQD0); assay: Selectivity test for Nav ion channel subtypes: NaV1.6 (HEK293, patch clamp); type: cell-based; conditions: 1 uM; HEK293 cells
Protocol: as §1, §2, §3, §4, §5, §6, §7, §8

[1] = In vivo pharmacokinetic testing of compounds in rats; conditions: male SD rats, single oral dose 100 mg/kg, plasma; VX-150 dosed as prodrug, active form analysed
Protocol: Test Case 4: In Vivo Pharmacokinetic Testing of Compounds in Rats
All SD rats in the test are male and are purchased from Shanghai Sippe-Bk Lab Animal Co., Ltd. Each compound is administered orally (100 mg/kg, 3 rats per group) at single dose to SD rats for pharmacokinetic study. The solutions are prepared on the same day of administration, e.g., the tested compound is suspended in 5% DMSO+95% saline, get vortexed for 2 min, and sonicated for 5 min to prepare a drug delivery system. The animals are fasted for 10-14 hours before oral administration, and resumed food 4 hours after administration. After oral administration by gavage in SD rats, pharmacokinetic samples are collected from jugular vein at the following time points: 0, 15 min, 30 min, 1 h, 2 h, 4 h, 6 h, 8 h and 24 h. Three whole blood samples are collected at each time point in a volume of about 0.2 mL and anticoagulated using sodium heparin. Blood samples are placed on ice immediately after collection and plasma is separated by centrifugation within 1 h (centrifugation conditions: 6800 rpm, 6 min, 2-8° C.). The collected plasma is stored in a −80° C. refrigerator prior to analysis.
In pharmacokinetic tests in rat, the control compound VX-150 is a prodrug (WO2015089361, compound 9), after administration, analysis is performed to test its active form (WO2014120808, compound 10). The aforementioned in vitro pharmacological tests are performed using the active ingredient (WO2014120808, compound 10).

NaV1.5, sequence (Q14524 whole entry): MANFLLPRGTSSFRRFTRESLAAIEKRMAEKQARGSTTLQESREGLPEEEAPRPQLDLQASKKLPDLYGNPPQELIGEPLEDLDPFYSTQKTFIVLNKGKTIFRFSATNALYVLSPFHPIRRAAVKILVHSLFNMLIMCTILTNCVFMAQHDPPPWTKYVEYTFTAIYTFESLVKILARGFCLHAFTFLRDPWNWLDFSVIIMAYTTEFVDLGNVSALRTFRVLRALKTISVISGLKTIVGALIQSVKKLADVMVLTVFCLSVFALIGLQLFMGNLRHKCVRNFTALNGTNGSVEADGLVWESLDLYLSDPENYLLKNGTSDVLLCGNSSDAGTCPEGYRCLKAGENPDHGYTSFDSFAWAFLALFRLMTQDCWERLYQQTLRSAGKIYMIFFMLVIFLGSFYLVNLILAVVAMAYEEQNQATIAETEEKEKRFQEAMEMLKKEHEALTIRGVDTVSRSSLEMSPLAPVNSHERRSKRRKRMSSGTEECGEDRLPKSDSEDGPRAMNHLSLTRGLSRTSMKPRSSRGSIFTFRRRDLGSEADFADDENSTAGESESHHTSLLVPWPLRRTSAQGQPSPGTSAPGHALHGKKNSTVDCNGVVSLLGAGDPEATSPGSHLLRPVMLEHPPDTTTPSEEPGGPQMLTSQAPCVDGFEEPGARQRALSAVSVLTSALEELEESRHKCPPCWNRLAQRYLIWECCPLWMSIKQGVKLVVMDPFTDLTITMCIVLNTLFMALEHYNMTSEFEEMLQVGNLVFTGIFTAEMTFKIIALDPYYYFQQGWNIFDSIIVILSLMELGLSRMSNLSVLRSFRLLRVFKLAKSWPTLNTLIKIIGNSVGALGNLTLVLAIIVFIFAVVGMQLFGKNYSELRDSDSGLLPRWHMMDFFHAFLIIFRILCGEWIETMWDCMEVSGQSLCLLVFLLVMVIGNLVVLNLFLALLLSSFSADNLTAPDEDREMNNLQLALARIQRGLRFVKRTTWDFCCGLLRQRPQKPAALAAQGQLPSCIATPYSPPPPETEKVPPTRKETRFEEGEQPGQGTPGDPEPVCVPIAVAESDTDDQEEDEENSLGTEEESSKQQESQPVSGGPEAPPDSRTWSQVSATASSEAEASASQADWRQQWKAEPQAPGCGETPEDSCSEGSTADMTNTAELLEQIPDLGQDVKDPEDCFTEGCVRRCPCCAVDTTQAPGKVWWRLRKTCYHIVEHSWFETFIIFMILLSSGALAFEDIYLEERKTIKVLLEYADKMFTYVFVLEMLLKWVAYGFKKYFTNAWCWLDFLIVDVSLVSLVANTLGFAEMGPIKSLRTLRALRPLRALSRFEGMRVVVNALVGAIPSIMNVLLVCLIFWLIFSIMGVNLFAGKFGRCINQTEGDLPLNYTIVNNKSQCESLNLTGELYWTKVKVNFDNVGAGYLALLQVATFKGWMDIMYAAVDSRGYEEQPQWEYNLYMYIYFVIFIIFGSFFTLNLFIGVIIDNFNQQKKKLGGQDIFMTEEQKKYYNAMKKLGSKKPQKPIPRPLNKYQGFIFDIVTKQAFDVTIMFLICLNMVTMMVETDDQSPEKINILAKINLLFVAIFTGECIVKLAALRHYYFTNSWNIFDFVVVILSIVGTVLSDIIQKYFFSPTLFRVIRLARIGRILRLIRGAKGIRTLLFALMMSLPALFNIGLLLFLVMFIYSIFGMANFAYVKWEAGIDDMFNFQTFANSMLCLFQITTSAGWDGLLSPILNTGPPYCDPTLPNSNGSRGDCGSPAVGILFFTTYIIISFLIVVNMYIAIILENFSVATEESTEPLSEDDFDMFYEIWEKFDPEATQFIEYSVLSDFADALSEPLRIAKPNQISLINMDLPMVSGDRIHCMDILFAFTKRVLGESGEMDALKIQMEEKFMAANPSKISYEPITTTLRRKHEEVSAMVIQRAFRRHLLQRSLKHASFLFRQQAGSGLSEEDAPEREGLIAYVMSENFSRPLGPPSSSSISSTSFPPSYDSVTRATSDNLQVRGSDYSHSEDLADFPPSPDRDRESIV
NaV1.3, sequence (Q9NY46 whole entry): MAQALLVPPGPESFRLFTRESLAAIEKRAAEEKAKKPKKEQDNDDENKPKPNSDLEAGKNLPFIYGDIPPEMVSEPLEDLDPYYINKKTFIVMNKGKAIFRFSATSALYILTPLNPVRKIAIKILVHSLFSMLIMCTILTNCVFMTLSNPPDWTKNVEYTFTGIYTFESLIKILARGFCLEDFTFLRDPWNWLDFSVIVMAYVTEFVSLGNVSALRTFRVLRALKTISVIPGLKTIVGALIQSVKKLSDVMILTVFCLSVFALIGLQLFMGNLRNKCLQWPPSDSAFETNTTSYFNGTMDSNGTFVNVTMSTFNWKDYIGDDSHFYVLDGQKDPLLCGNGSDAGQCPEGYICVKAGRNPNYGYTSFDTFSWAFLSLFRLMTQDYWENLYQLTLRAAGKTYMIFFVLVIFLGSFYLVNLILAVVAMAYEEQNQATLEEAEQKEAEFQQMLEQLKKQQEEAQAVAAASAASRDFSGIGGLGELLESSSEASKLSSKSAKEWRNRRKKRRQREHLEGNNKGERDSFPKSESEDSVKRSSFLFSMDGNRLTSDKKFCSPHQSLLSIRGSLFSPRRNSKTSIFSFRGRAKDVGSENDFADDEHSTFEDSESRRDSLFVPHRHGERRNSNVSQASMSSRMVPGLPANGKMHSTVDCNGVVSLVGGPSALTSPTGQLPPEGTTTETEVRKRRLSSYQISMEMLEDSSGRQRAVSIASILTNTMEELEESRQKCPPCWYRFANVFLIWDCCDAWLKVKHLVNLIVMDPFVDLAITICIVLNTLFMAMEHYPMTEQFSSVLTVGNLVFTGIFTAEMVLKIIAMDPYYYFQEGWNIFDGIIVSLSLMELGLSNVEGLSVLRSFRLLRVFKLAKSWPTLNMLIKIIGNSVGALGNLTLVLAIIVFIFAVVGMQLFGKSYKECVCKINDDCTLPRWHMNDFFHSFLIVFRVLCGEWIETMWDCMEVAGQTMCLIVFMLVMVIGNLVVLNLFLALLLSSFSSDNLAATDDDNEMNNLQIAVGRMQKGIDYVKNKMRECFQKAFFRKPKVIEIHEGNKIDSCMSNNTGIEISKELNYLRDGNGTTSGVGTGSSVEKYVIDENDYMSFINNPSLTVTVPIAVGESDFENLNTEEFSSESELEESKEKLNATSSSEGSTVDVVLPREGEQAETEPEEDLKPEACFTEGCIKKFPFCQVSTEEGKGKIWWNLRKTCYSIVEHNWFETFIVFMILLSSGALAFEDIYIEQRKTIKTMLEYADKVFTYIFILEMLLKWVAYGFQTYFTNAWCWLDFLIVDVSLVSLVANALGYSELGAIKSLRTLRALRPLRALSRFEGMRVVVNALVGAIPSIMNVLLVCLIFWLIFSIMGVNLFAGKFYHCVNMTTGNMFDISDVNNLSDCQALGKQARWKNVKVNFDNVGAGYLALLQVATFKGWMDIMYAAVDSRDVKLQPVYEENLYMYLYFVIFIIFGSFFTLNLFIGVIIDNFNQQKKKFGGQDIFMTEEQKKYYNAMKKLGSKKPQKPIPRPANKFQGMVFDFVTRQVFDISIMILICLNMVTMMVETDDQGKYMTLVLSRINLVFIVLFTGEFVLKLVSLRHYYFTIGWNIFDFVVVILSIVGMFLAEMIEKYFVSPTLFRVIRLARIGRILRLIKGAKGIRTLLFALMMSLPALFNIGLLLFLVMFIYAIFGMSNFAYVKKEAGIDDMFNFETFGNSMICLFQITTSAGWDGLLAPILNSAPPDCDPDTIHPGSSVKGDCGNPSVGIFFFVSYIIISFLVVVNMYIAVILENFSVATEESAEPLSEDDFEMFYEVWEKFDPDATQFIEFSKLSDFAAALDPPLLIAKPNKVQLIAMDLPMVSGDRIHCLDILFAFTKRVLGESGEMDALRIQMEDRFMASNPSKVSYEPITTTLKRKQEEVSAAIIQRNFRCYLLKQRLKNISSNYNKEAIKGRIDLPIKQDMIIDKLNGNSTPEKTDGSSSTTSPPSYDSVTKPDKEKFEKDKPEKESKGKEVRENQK
hERG ion channels, sequence (Q12809 whole entry): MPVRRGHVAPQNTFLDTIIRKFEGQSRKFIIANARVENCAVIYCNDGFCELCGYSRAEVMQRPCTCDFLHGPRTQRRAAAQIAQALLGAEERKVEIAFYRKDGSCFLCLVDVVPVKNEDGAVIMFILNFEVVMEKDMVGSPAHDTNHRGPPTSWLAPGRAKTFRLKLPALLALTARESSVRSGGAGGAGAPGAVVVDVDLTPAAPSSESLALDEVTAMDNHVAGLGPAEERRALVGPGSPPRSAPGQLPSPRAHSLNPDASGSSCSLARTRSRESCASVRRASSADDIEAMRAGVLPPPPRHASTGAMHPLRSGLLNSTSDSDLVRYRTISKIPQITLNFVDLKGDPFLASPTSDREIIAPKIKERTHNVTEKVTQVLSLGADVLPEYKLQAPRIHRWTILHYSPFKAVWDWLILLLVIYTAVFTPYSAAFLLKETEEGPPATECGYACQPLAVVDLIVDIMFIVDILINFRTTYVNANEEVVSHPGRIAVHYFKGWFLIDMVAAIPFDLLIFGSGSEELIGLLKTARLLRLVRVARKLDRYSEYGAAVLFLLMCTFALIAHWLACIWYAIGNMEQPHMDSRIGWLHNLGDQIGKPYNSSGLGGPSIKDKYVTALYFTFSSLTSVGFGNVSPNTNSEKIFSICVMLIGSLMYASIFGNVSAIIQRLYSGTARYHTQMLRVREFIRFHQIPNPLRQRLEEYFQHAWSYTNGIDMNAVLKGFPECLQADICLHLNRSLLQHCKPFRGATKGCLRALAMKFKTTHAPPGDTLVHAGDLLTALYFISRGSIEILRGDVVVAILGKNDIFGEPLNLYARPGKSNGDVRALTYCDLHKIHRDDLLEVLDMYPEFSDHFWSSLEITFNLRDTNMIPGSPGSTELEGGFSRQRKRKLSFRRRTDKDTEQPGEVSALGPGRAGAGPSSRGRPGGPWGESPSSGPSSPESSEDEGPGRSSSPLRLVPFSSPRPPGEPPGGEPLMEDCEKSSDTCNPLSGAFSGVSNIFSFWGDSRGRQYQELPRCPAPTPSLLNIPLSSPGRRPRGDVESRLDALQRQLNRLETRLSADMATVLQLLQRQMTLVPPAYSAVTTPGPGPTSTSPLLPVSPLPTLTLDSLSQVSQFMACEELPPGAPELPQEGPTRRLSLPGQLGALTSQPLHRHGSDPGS

## Cc1cc(F)ccc1Oc1cc(C(F)(F)F)ccc1C(=O)Nc1ccn(COP(=O)(O)O)c(=O)c1 [VX-150, reference compound]
NaV1.7
  Inhibition ratio on Nav1.7: 8.7%
NaV1.3
  Inhibition ratio on Nav1.3: 2.2%
NaV1.4
  Inhibition ratio on Nav1.4: 3.6%
NaV1.5
  Inhibition ratio on Nav1.5: 15.4%
hERG ion channels
  IC50: 7 µM
NaV1.1
  Inhibition ratio on Nav1.1: <1%
Human NaV1.8 ion channel
  Inhibition ratio of Nav1.8 (Activity of inhibition): B (80 > B >= 50)
NaV1.6
  Inhibition ratio on Nav1.6: 1.7%
[1]
  AUC: 13859 ng·h/mL
  Cmax: 1176 ng/mL
  T1/2: 2.2 h
